Data taken from ChEMBL document CHEMBL2311374, “Anti-angiogenesis and immunomodulatory activities of an anti-tumor sesquiterpene bigelovin isolated from Inula helianthus-aquatica” (Eur J Med Chem, 2013).
Active and inactive are the calls of the source. The rule behind the calls is not given here.

Columns and labels:
PBMC [1] = test: Immunomodulatory effect in phytohemagglutininin-activated human PBMC assessed as inhibition of INFgamma production measured after 24 hrs by ELISA; format: functional, cell-based
PBMC [2] = test: Immunomodulatory effect in phytohemagglutininin-activated human PBMC assessed as inhibition of IL12 production measured after 24 hrs by ELISA; format: functional, cell-based
HMEC-1 [3] = test: Effect on cell adhesion gene expression in TNFalpha stimulated HMEC1 cells assessed as reduction in ICAM1 mRNA level at 1000 or 3000 nM measured after 12 hrs by real-time PCR analysis; format: functional, Homo sapiens; parameters: scale not given: the % may be the effect or the level left
HMEC-1 [4] = test: Effect on cell adhesion gene expression in TNFalpha stimulated HMEC1 cells assessed as reduction in ICAM1 protern expression at 1000 or 3000 nM measured after 24 hrs by Western blotting; format: functional, cell-based; details: Homo sapiens
Danio rerio [5] = species on record: Danio rerio; test: Anti-angiogenic activity in transgenic zebrafish Tg(fli1a:EGFP)y1 1 to 4 cell stage embryo assessed as down-regulation of Tie-1 angiogenic gene expression measured after 24 hrs by real-time PCR analysis; format: functional
HMEC-1 [6] = test: Inhibition of HMEC1 cells growth measured after 48 hrs by MTT assay; format: functional, cell-based; details: Homo sapiens, HMEC-1, 48 h
Danio rerio [7] = species on record: Danio rerio; test: Anti-angiogenic activity in transgenic zebrafish Tg(fli1a:EGFP)y1 1 to 4 cell stage embryo assessed as down-regulation of Ang-2 angiogenic gene expression measured after 24 hrs by real-time PCR analysis; format: functional
HMEC-1 [8] = test: Effect on cell adhesion gene expression in TNFalpha stimulated HMEC1 cells assessed as reduction in E-selectin protern expression at 1000 or 3000 nM measured after 24 hrs by Western blotting; format: functional, cell-based; details: Homo sapiens
HMEC-1 [9] = test: Inhibition of HMEC1 cells growth measured after 48 hrs; format: functional, cell-based; details: Homo sapiens, HMEC-1, 48 h
PBMC [10] = test: Cytotoxicity against human PBMC at 62.5 to 250 nM for 72 hrs by XTT assay; format: cell-based; details: 0.25 µM
HMEC-1 [11] = test: Antimigratory activity against HMEC1 cells assessed as decrease in cell motility measured after 24 hrs by scratch wound assay; format: functional, cell-based; details: Homo sapiens
Danio rerio [12] = species on record: Danio rerio; test: Anti-angiogenic activity in transgenic zebrafish Tg(fli1a:EGFP)y1 1 to 4 cell stage embryo assessed as down-regulation of Tie-2 angiogenic gene expression measured after 24 hrs by real-time PCR analysis; format: functional
Danio rerio [13] = species on record: Danio rerio; test: Anti-angiogenic activity in transgenic zebrafish Tg(fli1a:EGFP)y1 1 to 4 cell stage embryo assessed as down-regulation of Ang-1 angiogenic gene expression measured after 24 hrs by real-time PCR analysis; format: functional
Danio rerio [14] = species on record: Danio rerio; test: Anti-angiogenic activity in transgenic zebrafish Tg(fli1a:EGFP)y1 1 to 4 cell stage embryo assessed as inhibition of subintestinal vessels formation measured after 48 hrs by fluorescent microscopy; format: functional, tissue-based
Danio rerio [15] = species on record: Danio rerio; test: Anti-angiogenic activity in transgenic zebrafish Tg(fli1a:EGFP)y1 1 to 4 cell stage embryo assessed as inhibition of subintestinal vessel length measured at 25 to 100 uM after 48 hrs by fluorescent microscopy; format: functional, tissue-based
HMEC-1 [16] = test: Effect on cell adhesion gene expression in TNFalpha stimulated HMEC1 cells assessed as reduction in E-selectin mRNA level at 1000 or 3000 nM measured after 12 hrs by real-time PCR analysis; format: functional, Homo sapiens; parameters: scale not given: the % may be the effect or the level left
PBMC [17] = test: Immunomodulatory effect in phytohemagglutininin-activated human PBMC assessed as inhibition of TNFalpha production measured after 24 hrs by ELISA; format: functional, cell-based
HMEC-1 [18] = test: Inhibition of cell proliferation of HMEC1 cells assessed as [methyl-3H] thymidine incorporation measured after 48 hrs; format: functional, cell-based; details: Homo sapiens
HMEC-1 [19] = test: Effect on cell adhesion gene expression in TNFalpha stimulated HMEC1 cells assessed as reduction in VCAM1 protern expression at 1000 or 3000 nM measured after 24 hrs by Western blotting; format: functional, cell-based; details: Homo sapiens
PBMC [20] = test: Immunomodulatory effect in phytohemagglutininin-activated human PBMC assessed as stimulation of cell proliferation at 62.5 to 250 nM measured after 72 hrs; format: functional, cell-based
HMEC-1 [21] = test: Effect on cell adhesion gene expression in TNFalpha stimulated HMEC1 cells assessed as reduction in VCAM1 mRNA level at 1000 or 3000 nM measured after 12 hrs by real-time PCR analysis; format: functional, Homo sapiens; parameters: scale not given: the % may be the effect or the level left
Danio rerio [22] = species on record: Danio rerio; test: Anti-angiogenic activity in transgenic zebrafish Tg(fli1a:EGFP)y1 1 to 4 cell stage embryo assessed as complete inhibition of subintestinal vessels formation measured at 100 uM after 48 hrs by fluorescent microscopy; format: functional, tissue-based
PBMC [23] = test: Immunomodulatory effect in phytohemagglutininin-activated human PBMC assessed as inhibition of IL2 production measured after 24 hrs by ELISA; format: functional, cell-based
[24] = Cytotoxicity against human HMEC1 cells at 1000 or 3000 nM measured after 12 hrs by MTT assay; format: cell-based; details: hmec-1, 12 h
[25] = Cytotoxicity against human HMEC1 cells; format: cell-based; details: hmec-1

SMILES: C=C1C(=O)O[C@H]2C[C@@H](C)[C@@H]3C=CC(=O)[C@@]3(C)[C@@H](OC(C)=O)[C@H]12 [BIGELOVIN]
- inhibition (PBMC [1]): Dose-dependent effect
- inhibition (PBMC [2]): Dose-dependent effect
- Activity (HMEC-1 [3]): 76%
- inhibition (HMEC-1 [3]; Homo sapiens): Dose-dependent effect
- Activity (HMEC-1 [4]): Active
- inhibition (Danio rerio [5]): inactive
- IC50 (HMEC-1 [6]): 2680 nM
- inhibition (Danio rerio [7]): Active
- Activity (HMEC-1 [8]): Active
- IC50 (HMEC-1 [9]): 946 nM
- Activity (PBMC [10]): Non-toxic
- inhibition (HMEC-1 [11]): Dose-dependent effect
- inhibition (Danio rerio [12]): Active
- inhibition (Danio rerio [13]): Active
- inhibition (Danio rerio [14]): Dose-dependent effect
- inhibition (Danio rerio [15]): Active
- Activity (HMEC-1 [16]): 67%
- inhibition (PBMC [17]): Dose-dependent effect
- inhibition (HMEC-1 [18]): Dose-dependent effect
- Activity (HMEC-1 [19]): Active
- Activity (PBMC [20]): Active
- Activity (HMEC-1 [21]): 74%
- inhibition (Danio rerio [22]): Active
- inhibition (PBMC [23]): Dose-dependent effect
- Activity [24]: Non-toxic
- Activity [25]: Non-toxic
- inhibition (INH) [25]: Dose-dependent effect
